Measurements: publication PMC7385619, “A triple action CDK4/6-PI3K-BET inhibitor with augmented cancer cell cytotoxicity” (Cell Discovery, 2020)
Read-outs that look alike come from different tables or passages of the source.

Assays:
Test in all cases: KINOMEscan assay (Eurofins DiscoverX)
Format in all cases: binding
kinome (kinase panel) [1] = biological target: T1, kinome (kinase panel) (Homo sapiens, UniProt Q96PY6); conditions: NEK1; 1000 nM; read-out: Percent Control
T1 construct: purchased Eurofins DiscoverX
T1 sequence (Q96PY6 whole entry): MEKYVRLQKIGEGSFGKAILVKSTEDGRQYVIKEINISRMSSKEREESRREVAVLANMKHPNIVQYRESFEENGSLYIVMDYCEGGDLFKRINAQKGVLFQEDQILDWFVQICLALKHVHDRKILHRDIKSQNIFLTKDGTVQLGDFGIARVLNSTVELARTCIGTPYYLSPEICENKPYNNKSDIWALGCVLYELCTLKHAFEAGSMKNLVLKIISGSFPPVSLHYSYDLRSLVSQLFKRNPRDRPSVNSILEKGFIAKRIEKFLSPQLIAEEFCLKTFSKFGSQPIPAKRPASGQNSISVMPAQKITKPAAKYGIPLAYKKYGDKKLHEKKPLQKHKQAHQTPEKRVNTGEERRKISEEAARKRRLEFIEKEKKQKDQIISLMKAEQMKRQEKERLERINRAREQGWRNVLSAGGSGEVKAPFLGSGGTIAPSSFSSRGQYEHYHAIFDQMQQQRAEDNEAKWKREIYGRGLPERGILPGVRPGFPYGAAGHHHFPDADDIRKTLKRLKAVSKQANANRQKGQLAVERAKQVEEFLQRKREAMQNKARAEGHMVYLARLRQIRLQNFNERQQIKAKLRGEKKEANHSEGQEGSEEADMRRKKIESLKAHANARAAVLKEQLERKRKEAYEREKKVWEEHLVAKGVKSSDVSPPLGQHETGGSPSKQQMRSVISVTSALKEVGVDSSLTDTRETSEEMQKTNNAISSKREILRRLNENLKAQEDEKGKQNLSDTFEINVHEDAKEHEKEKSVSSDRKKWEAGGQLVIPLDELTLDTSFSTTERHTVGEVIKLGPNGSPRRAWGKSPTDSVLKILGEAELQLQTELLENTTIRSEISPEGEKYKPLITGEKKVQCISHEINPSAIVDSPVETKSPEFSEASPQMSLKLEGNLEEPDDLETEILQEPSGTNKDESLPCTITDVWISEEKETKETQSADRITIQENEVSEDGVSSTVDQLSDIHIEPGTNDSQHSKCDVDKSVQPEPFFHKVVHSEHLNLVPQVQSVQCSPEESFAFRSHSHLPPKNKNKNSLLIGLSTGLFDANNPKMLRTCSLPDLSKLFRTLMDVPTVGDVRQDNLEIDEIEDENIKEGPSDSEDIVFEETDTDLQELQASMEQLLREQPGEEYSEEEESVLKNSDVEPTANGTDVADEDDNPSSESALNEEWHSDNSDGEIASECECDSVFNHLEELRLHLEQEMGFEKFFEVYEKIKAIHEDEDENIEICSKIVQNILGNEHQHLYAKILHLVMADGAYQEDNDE

kinome (kinase panel) [2] = biological target: T2, kinome (kinase panel) (Homo sapiens, UniProt Q13043); conditions: MST1 (Entrez STK4); 1000 nM; read-out: Percent Control
T2 construct: purchased Eurofins DiscoverX

kinome (kinase panel) [3] = biological target: T3, kinome (kinase panel) (Homo sapiens, UniProt Q9UHD2); conditions: TBK1; 1000 nM; read-out: Percent Control
T3 construct: purchased Eurofins DiscoverX

kinome (kinase panel) [4] = biological target: T4, kinome (kinase panel) (Homo sapiens, UniProt P07949, V804L); conditions: read-out: Percent Control
T4 construct: purchased Eurofins DiscoverX

kinome (kinase panel) [5] = biological target: T5, kinome (kinase panel) (Homo sapiens, UniProt P00519, T315I)
T5 construct: purchased Eurofins DiscoverX

kinome (kinase panel) [6] = biological target: T6, kinome (kinase panel) (Homo sapiens, UniProt P07333); conditions: 1000 nM, read-out: Percent Control
T6 construct: purchased Eurofins DiscoverX
T6 sequence (P07333 20-972): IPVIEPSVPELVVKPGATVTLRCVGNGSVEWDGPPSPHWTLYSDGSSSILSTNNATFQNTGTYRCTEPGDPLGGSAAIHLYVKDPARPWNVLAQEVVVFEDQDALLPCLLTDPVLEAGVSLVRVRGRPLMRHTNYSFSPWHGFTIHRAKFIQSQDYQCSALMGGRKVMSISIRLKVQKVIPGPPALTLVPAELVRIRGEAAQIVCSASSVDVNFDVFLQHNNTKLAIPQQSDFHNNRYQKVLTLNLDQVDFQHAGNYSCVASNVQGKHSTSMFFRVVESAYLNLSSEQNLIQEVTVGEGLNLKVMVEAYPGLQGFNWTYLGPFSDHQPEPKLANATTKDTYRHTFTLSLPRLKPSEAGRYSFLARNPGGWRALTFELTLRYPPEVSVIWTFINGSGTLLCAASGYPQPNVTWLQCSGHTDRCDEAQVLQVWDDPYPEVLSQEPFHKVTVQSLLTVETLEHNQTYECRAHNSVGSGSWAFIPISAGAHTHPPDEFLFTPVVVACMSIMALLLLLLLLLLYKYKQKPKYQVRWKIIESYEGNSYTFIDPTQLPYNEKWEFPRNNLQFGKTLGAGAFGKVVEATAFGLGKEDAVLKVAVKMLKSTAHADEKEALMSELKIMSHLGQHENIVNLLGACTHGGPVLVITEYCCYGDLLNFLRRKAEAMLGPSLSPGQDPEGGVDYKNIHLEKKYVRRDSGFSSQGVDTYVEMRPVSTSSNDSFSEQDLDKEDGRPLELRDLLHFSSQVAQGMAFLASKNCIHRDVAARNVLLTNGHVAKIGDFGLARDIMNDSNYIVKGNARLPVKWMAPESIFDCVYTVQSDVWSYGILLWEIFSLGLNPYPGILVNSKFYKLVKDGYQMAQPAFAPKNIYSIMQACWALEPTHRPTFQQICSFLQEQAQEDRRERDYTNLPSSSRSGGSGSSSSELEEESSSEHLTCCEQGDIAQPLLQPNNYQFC

kinome (kinase panel) [7] = biological target: T7, kinome (kinase panel) (Homo sapiens, UniProt Q9UQ88); conditions: CDC2L2; 1000 nM; read-out: Percent Control
T7 construct: purchased Eurofins DiscoverX

kinome (kinase panel) [8] = biological target: T8, kinome (kinase panel) (Homo sapiens, UniProt P33981); conditions: TTK; 1000 nM; read-out: Percent Control
T8 construct: purchased Eurofins DiscoverX

kinome (kinase panel) [9] = biological target: T9, kinome (kinase panel) (Homo sapiens, UniProt Q9C098); conditions: DCAMKL3 (Entrez DCLK3); 1000 nM; read-out: Percent Control
T9 construct: purchased Eurofins DiscoverX

kinome (kinase panel) [10] = biological target: T10, kinome (kinase panel) (Homo sapiens, UniProt Q9Y4K4); conditions: MAP4K5; 1000 nM; read-out: Percent Control
T10 construct: purchased Eurofins DiscoverX

kinome (kinase panel) [11] = biological target: T11, kinome (kinase panel) (Homo sapiens, UniProt P29376); conditions: LTK; 1000 nM; read-out: Percent Control
T11 construct: purchased Eurofins DiscoverX

kinome (kinase panel) [12] = biological target: T12, kinome (kinase panel) (Homo sapiens, UniProt Q15208); conditions: NDR1 (Entrez STK38); 1000 nM; read-out: Percent Control
T12 construct: purchased Eurofins DiscoverX
T12 sequence (Q15208 whole entry): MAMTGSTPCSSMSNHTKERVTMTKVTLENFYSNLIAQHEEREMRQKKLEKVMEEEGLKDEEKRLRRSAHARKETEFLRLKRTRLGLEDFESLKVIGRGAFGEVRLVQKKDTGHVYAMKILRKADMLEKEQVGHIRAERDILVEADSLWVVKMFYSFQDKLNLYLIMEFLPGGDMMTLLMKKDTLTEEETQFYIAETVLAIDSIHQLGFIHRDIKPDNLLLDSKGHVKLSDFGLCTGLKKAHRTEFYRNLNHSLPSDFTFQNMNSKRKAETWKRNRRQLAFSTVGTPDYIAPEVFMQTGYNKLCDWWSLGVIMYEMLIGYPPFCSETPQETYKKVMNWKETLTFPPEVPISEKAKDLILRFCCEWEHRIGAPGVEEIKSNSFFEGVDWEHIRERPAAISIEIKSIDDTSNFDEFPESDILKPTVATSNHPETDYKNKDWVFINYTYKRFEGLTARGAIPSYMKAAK

kinome (kinase panel) [13] = biological target: T13, kinome (kinase panel) (Homo sapiens, UniProt P42336, Q546K); conditions: read-out: Percent Control
T13 construct: purchased Eurofins DiscoverX

kinome (kinase panel) [14] = biological target: T14, kinome (kinase panel) (Homo sapiens, UniProt P07949, V804M); conditions: read-out: Percent Control
T14 construct: purchased Eurofins DiscoverX

kinome (kinase panel) [15] = biological target: T15, kinome (kinase panel) (Homo sapiens, UniProt P46734); conditions: MEK3 (Entrez MAP2K3); 1000 nM; read-out: Percent Control
T15 construct: purchased Eurofins DiscoverX

kinome (kinase panel) [16] = biological target: T16, kinome (kinase panel) (Homo sapiens, UniProt Q9UPZ9); conditions: ICK; 1000 nM; read-out: Percent Control
T16 construct: purchased Eurofins DiscoverX

kinome (kinase panel) [17] = biological target: T17, kinome (kinase panel) (Homo sapiens, UniProt O43283); conditions: LZK (Entrez MAP3K13); 1000 nM; read-out: Percent Control
T17 construct: purchased Eurofins DiscoverX

kinome (kinase panel) [18] = biological target: T18, kinome (kinase panel) (Homo sapiens, UniProt P53778); conditions: p38-gamma (Entrez MAPK12); 1000 nM; read-out: Percent Control
T18 construct: purchased Eurofins DiscoverX

kinome (kinase panel) [19] = biological target: T19, kinome (kinase panel) (Homo sapiens, UniProt P36888, N841I); conditions: […]; 1000 nM; read-out: Percent Control
T19 construct: purchased Eurofins DiscoverX

kinome (kinase panel) [20] = biological target: T20, kinome (kinase panel) (Homo sapiens, UniProt Q12851); conditions: MAP4K2; 1000 nM; read-out: Percent Control
T20 construct: purchased Eurofins DiscoverX

kinome (kinase panel) [21] = biological target: T21, kinome (kinase panel) (Homo sapiens, UniProt Q13873); conditions: BMPR2; 1000 nM; read-out: Percent Control
T21 construct: purchased Eurofins DiscoverX

kinome (kinase panel) [22] = biological target: T22, kinome (kinase panel) (Homo sapiens, UniProt Q99558); conditions: NIK (Entrez MAP3K14); 1000 nM; read-out: Percent Control
T22 construct: purchased Eurofins DiscoverX

kinome (kinase panel) [23] = biological target: T23, kinome (kinase panel) (Homo sapiens, UniProt Q6XUX3); conditions: RIPK5 (DSTYK); 1000 nM; read-out: Percent Control
T23 construct: purchased Eurofins DiscoverX
T23 sequence (Q6XUX3 whole entry): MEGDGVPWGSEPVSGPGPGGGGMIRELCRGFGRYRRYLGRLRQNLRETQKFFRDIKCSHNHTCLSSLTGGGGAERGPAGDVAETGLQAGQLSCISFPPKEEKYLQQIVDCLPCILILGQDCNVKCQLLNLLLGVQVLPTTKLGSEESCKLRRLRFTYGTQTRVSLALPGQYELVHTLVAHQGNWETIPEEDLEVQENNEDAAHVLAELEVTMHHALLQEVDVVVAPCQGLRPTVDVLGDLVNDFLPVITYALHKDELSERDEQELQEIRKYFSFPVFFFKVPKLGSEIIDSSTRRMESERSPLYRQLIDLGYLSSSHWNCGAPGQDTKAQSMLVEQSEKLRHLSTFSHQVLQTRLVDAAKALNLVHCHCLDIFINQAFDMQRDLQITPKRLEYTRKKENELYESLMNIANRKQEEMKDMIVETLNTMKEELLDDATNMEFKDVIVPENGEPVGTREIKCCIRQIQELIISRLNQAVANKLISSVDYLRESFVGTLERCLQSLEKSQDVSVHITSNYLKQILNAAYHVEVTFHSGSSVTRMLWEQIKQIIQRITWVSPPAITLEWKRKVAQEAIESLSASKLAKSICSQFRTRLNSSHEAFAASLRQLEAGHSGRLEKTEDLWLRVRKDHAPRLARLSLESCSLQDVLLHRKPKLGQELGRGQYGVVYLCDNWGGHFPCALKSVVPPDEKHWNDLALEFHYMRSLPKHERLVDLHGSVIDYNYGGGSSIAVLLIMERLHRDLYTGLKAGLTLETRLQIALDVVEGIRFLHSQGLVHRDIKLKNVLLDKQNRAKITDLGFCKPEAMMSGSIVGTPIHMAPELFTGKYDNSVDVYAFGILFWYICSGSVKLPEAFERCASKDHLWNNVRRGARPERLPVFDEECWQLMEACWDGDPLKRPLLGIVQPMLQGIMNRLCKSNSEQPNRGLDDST

kinome (kinase panel) [24] = biological target: T24, kinome (kinase panel) (Homo sapiens, UniProt Q9NSY1); conditions: BIKE (Entrez BMP2K); 1000 nM; read-out: Percent Control
T24 construct: purchased Eurofins DiscoverX

kinome (kinase panel) [25] = biological target: T25, kinome (kinase panel) (Homo sapiens, UniProt Q7L7X3); conditions: TAOK1; 1000 nM; read-out: Percent Control
T25 construct: purchased Eurofins DiscoverX

kinome (kinase panel) [26] = biological target: T26, kinome (kinase panel) (Homo sapiens, UniProt Q9UK32); conditions: 1000 nM, read-out: Percent Control
T26 construct: purchased Eurofins DiscoverX
T26 sequence (Q9UK32 whole entry): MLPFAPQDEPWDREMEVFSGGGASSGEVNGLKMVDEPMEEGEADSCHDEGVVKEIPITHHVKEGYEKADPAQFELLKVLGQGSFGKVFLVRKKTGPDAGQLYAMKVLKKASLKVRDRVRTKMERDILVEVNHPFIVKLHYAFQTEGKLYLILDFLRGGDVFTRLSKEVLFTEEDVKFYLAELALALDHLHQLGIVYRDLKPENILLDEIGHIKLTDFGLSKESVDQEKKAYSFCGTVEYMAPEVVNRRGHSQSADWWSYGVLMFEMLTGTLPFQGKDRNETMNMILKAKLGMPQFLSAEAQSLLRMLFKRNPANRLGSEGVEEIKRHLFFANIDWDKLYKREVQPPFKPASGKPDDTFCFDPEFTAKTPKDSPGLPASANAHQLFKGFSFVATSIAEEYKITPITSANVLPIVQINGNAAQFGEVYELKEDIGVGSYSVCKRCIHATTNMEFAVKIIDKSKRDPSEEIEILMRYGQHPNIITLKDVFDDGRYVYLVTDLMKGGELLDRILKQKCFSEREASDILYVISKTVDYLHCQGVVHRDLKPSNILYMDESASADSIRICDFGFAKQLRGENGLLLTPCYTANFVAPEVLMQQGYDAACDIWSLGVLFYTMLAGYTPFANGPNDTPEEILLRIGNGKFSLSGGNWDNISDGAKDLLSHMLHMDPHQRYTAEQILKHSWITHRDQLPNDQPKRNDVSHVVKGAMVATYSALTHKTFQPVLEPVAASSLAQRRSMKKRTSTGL

kinome (kinase panel) [27] = biological target: T27, kinome (kinase panel) (Homo sapiens, UniProt P45985); conditions: MEK4 (Entrez MAP2K4); 1000 nM; read-out: Percent Control
T27 construct: purchased Eurofins DiscoverX

kinome (kinase panel) [28] = biological target: T28, kinome (kinase panel) (Homo sapiens, UniProt P16591); conditions: FER; 1000 nM; read-out: Percent Control
T28 construct: purchased Eurofins DiscoverX

kinome (kinase panel) [29] = biological target: T29, kinome (kinase panel) (Homo sapiens, UniProt P57058); conditions: HUNK; 1000 nM; read-out: Percent Control
T29 construct: purchased Eurofins DiscoverX

kinome (kinase panel) [30] = biological target: T30, kinome (kinase panel) (Homo sapiens, UniProt P42684); conditions: ABL2; 1000 nM; read-out: Percent Control
T30 construct: purchased Eurofins DiscoverX

kinome (kinase panel) [31] = biological target: T31, kinome (kinase panel) (Homo sapiens, UniProt Q8TBX8); conditions: PIP5K2C (Entrez PIP4K2C); 1000 nM; read-out: Percent Control
T31 construct: purchased Eurofins DiscoverX
T31 sequence (Q8TBX8 whole entry): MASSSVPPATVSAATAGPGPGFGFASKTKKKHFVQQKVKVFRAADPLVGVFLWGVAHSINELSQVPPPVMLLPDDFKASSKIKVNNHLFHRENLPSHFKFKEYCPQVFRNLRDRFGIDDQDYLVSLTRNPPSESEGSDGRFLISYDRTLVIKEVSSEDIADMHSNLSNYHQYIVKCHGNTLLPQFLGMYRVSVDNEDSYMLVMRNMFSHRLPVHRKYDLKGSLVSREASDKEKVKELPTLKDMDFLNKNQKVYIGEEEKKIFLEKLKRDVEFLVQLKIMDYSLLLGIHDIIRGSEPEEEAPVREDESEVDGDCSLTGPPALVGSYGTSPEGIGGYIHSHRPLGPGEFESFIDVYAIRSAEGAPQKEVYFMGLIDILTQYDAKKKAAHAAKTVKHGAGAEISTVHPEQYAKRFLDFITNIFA

kinome (kinase panel) [32] = biological target: T32, kinome (kinase panel) (Homo sapiens, UniProt Q15139); conditions: PRKD1; 1000 nM; read-out: Percent Control
T32 construct: purchased Eurofins DiscoverX

CN(C)C(=O)c1cc2cnc(Nc3ccc(-c4csc5c(=O)cc(N6CCOCC6)oc45)cc3)nc2n1C1CCCC1 [SRX3177]
remaining binding at 1 µM (kinome (kinase panel) [1]): 100%
remaining binding at 1 µM (kinome (kinase panel) [2]): 100%
remaining binding at 1 µM (kinome (kinase panel) [3]): 16%
remaining binding at 1 µM (kinome (kinase panel) [4]): 99%
Percent Control (kinome (kinase panel) [5]): 79
remaining binding at 1 µM (kinome (kinase panel) [5]; read-out: Percent Control): 88%
remaining binding at 1 µM (kinome (kinase panel) [6]; CSF1R-autoinhibited): 60%
remaining binding at 1 µM (kinome (kinase panel) [6]; CSF1R): 100%
remaining binding at 1 µM (kinome (kinase panel) [7]): 93%
remaining binding at 1 µM (kinome (kinase panel) [8]): 1.8%
remaining binding at 1 µM (kinome (kinase panel) [9]): 100%
remaining binding at 1 µM (kinome (kinase panel) [10]): 100%
remaining binding at 1 µM (kinome (kinase panel) [11]): 98%
remaining binding at 1 µM (kinome (kinase panel) [12]): 99%
remaining binding at 1 µM (kinome (kinase panel) [13]): 41%
remaining binding at 1 µM (kinome (kinase panel) [14]): 100%
remaining binding at 1 µM (kinome (kinase panel) [15]): 76%
remaining binding at 1 µM (kinome (kinase panel) [16]): 9.8%
remaining binding at 1 µM (kinome (kinase panel) [17]): 48%
remaining binding at 1 µM (kinome (kinase panel) [18]): 66%
remaining binding at 1 µM (kinome (kinase panel) [19]): 7.2%
remaining binding at 1 µM (kinome (kinase panel) [20]): 82%
remaining binding at 1 µM (kinome (kinase panel) [21]): 78%
remaining binding at 1 µM (kinome (kinase panel) [22]): 45%
remaining binding at 1 µM (kinome (kinase panel) [23]): 87%
remaining binding at 1 µM (kinome (kinase panel) [24]): 10%
remaining binding at 1 µM (kinome (kinase panel) [25]): 14%
remaining binding at 1 µM (kinome (kinase panel) [26]; RSK4(Kin.Dom.1-N-terminal) (RPS6KA6)): 90%
remaining binding at 1 µM (kinome (kinase panel) [26]; RSK4(Kin.Dom.2-C-terminal) (RPS6KA6)): 90%
remaining binding at 1 µM (kinome (kinase panel) [27]): 79%
remaining binding at 1 µM (kinome (kinase panel) [28]): 92%
remaining binding at 1 µM (kinome (kinase panel) [29]): 100%
remaining binding at 1 µM (kinome (kinase panel) [30]): 81%
remaining binding at 1 µM (kinome (kinase panel) [31]): 1.8%
remaining binding at 1 µM (kinome (kinase panel) [32]): 100%
